pIC50: −log10 of the molar value.
Test: Inhibition of P2Y12 in human platelet rich plasma assessed as reduction in ADP-induced platelet aggregation pre-incubated before ADP addition and measured after 10 mins by Bruker spectrophotometry

SMILES | pIC50
CCCn1nc2cccc([N+](=O)[O-])c2n1 | 2.88
O=[N+]([O-])c1cccc2c1nnn2Cc1ccccc1 | 3.09
Cn1nnc2c([N+](=O)[O-])cccc21 | 2.74
Cn1nc2cccc([N+](=O)[O-])c2n1 | 2.71
Cn1nnc2cccc([N+](=O)[O-])c21 | 2.74
CCn1nc2cccc([N+](=O)[O-])c2n1 | 2.79
CCCn1nnc2c([N+](=O)[O-])cccc21 | 2.89
CCCCn1nnc2c([N+](=O)[O-])cccc21 | 2.98
CCCCCn1nnc2c([N+](=O)[O-])cccc21 | 2.97
CCCCCn1nc2cccc([N+](=O)[O-])c2n1 | 2.99
CCCCCCn1nnc2c([N+](=O)[O-])cccc21 | 2.98
CCCCCCCn1nnc2c([N+](=O)[O-])cccc21 | 3.02
CCCCCCCn1nc2cccc([N+](=O)[O-])c2n1 | 3.03
CCCCCCCCn1nnc2c([N+](=O)[O-])cccc21 | 3.03
O=[N+]([O-])c1cccc2c1nnn2CCCCl | 3.04
O=[N+]([O-])c1cccc2nn(CCCCl)nc12 | 2.90
O=[N+]([O-])c1cccc2nn(Cc3ccccc3)nc12 | 3.09
Cc1ccc(S(=O)(=O)n2nnc3c([N+](=O)[O-])cccc32)cc1 | 3.07
CCn1nnc2c([N+](=O)[O-])cccc21 | 2.82
CCCCn1nc2cccc([N+](=O)[O-])c2n1 | 2.97
CCCCCCn1nc2cccc([N+](=O)[O-])c2n1 | 3.03
CCCCCCCCn1nc2cccc([N+](=O)[O-])c2n1 | 3.04
O=C(c1ccccc1)n1nnc2c([N+](=O)[O-])cccc21 | 3.19
CCCSc1nc(N[C@@H]2C[C@H]2c2ccc(F)c(F)c2)c2nnn([C@@H]3C[C@H](OCCO)[C@@H](O)[C@H]3O)c2n1 [AR-C126532XX] | 6.49
c1ccc2[nH]nnc2c1 [CHEBI:75331] | 2.13

Source: BindingDB's records for doi:10.1016/j.bmc.2017.07.045 (Punjabi University, 2017)
